These results are taken from patent US20260014278A1, “HYBRID PEPTIDE DENDRIMER SYSTEMS AND EXTRAHEPATIC DELIVERY” (NUNTIUS THERAPEUTICS LIMITED, priority 2022, published 2026).

For series [1], the system named is differentiated mouse muscle cells (C2c12 cells). Kind of series: eGFP expression in differentiated C2c12 cells, coat with or without muscle targeting domain. The class given is cell-based. The method, then: In a second experiment, differentiated mouse muscle cells (C2c12 cells) were transfected with formulations comprising mRNA expressing eGFP. The muscle cells were differentiated as follows: C2c12 cells were seeded and allowed to grow to confluence in a growth medium. Once the cells were confluent, the medium on the cells was replaced with a differentiation medium for 2 days to allow the cells to develop myotube characteristics. The differentiation medium was replaced with the growth medium 30 mins before transfection. The cells were transfected for 24 hours with nanocarriers indicated in FIG. 27 and harvested to assay the eGFP reporter gene expression using a plate reader. The mRNA used expressed eGFP. The growth medium contained high glucose DMEM (Gibco), 10% FBS (Gibco), 2 mM L-glutamine (Gibco). The differentiated medium contained high glucose DMEM (Gibco), 2% horse serum (Gibco), 2 mM L-glutamine (Gibco), 1 uM insulin.
As in the first experiment, the formulations used were comprising GSCG1,2-RHL (N:P=0.6:1 to mRNA) with DOTMA/DOPE (w/w=10:1 to mRNA) and mRNA, and coated with either the same equivalent of mole of dendritic PGA with or without the muscle targeting domain. The cells were harvested 24 hours post-transfection. Control: Cells were not transfected with mRNA or transfected with mRNA alone. The dendrimer with the muscle targeting domain was muscle-G1-EEEE. […]

Series [2] deals with mouse muscle cells (C2c12 cells). The series can be described thus: eGFP expression in undifferentiated C2c12 cells, coat with or without muscle targeting domain. The class given is cell-based. The conditions noted are these: GSCG1,2-RHL N:P=0.6:1, DOTMA/DOPE w/w 10:1, same mole equivalent of coat, 24 hours; FIG. 26. An excerpt: Nanocarrier comprising GSCG1,2-RHL (N:P=0.6:1 to mRNA) with DOTMA/DOPE (w/w=10:1 to mRNA) and mRNA was firstly prepared as described. The nanoparticles were then coated with a dendrimer with a muscle targeting domain, the muscle-G1-EEEE (Ac-EEEE)2[…]-(Acp)-NH2), at different mRNA:coating mole ratios, between 0.5:1 to 5:1, preferably around 2.74:1. As a control, the nanoparticles were coated with a dendrimer without a muscle targeting domain, the G1-EEEE, at different mRNA:coating mole ratios, between 0.5:1 to 5:1, preferably around 2.74:1.
In a first experiment, mouse muscle cells (C2c12 cells) were transfected with formulations comprising mRNA expressing eGFP. The formulations used were comprising GSCG1,2-RHL (N:P=0.6:1 to mRNA) with DOTMA/DOPE (w/w=10:1 to mRNA) and mRNA, and coated with either the same equivalent of mole of dendritic PGA with or without the muscle targeting domain. The cells were harvested 24 hours post-transfection. Control: Cells were not transfected with mRNA. The dendrimer with the muscle targeting domain was (Ac-EEEE)2[…]-(Acp)-NH2 (named “muscle-G1-EEEE”. ASSLNIA, SEQ ID NO:1, is the muscle targeting motif). The dendrimer without the muscle targeting domain was (Ac-EEEE)2[…]-NH2 (“[…]1-EEEE”).

Series [3] is described as follows: Zeta potential of nanoparticles (electrophoretic light scattering). The class given is physicochemical. The text has this: Zeta potential is a measurement of the magnitude of the electrostatic or charge repulsion/attraction between particles. This can be determined by analysing particle mobility and charge (Zeta potential) using the Electrophoretic Light Scattering (ELS) technique.
Zeta potential is a measurement of the magnitude of the electrostatic or charge repulsion/attraction between particles. This can be determined by analysing particle mobility and charge (Zeta potential) using the Electrophoretic Light Scattering (ELS) technique. […] Parameters: reference material: polystyrene latex, dispersant: water, 25° C. The measurements of the zeta potential were carried out using the Zetasizer Advance Series—Pro (Malvern Panalytical Ltd, Malvern, UK) according to the manufacturer's instructions.

Series [4] is described as follows: Dynamic light scattering: hydrodynamic size and polydispersity index (PDI) of nanoparticles. The class given is physicochemical. The gist of the method:
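Hydrodynamic size measured by DLS (Stokes-Einstein), PDI from cumulants fit per ISO 13321/22412. Samples diluted 16× in 25 mM HEPES, water as dispersant, 25° C; PDI measured on dendrimer:nucleic acid 8:1 nanoparticles.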

Another series relates to C2c12 muscle cells. The series can be described thus: Uptake of Alexa488 labelled mRNA in C2c12 cells, flow cytometry. The class given is cell-based, mouse. The following applies: NTX3 N:P=0.6:1, DOTMA:DOPE w/w 10:1, 4 hours; FIG. 18. The method, then: FIG. 18. […] Labelled mRNA delivery to cells. Mouse muscle cells (C2c12) took up mRNA labelled with an Alexa488 fluorophore following transfection. The cells were transfected with labelled mRNA alone, labelled mRNA with NTX3 (N:P=0.6:1) and DOTMA:DOPE for 4 hours, and the uptake of the mRNA was measured by flow cytometry. NTX3 is GSCG1,2-RL, 3-LR linked with a muscle cell targeting peptide with 6 histidines. DOTMA:DOPE was used at w/w=10:1 to mRNA.
C2c12 cells were maintained in DMEM medium with 10% (v/v) FCS and 1% (v/v) L-glutamine in a humidified atmosphere in 5% CO2 and 37° C. The Alexa Fluor 488 tagged mRNA, expressing an eGFP, was purchased from RiboPro. 24 hours before transfection, C2c12 cells were seeded in 96 well plates in order to reach 70% confluence. mRNA transfection complexes were formed by mixing mRNA with the dendrimers in 25 mM HEPES buffer, then with DOTMA:DOPE (1:1 w/w) in 25 mM HEPES buffer at 25° C. The transfection complexes (“NTX3”) were then overlaid to the cells in full growth medium. The cells were harvested for FACS analysis 4 hours after transfection. Cells medium and PBS used to wash each well, was collected from each treatment before the addition of […] EDTA in PBS. After 10 minutes of incubation at 37° C., the cells were gently detached from the plates and pelleted down at 400 g for 8 minutes, 4° C. […] Collected data were analysed using FlowJo 10.0 software.

Series [5] relates to Mouse muscle cells (C2c12). The series can be described thus: eGFP expression (RFU/mg) in C2c12 muscle cells, muscle-targeting dendrimers. It counts as cell-based. The conditions noted are these: N:P=0.6:1, DOTMA:DOPE w/w 10:1, 24 hours post-transfection; FIG. 9. The method, then: Cell lines, transfection reagents and mRNA. C2c12 cells were maintained in DMEM medium with 10% (v/v) FCS and 1% (v/v) L-glutamine in a humidified atmosphere in 5% CO2, and 37° C. The Alexa Fluor 488 tagged mRNA, expressing an eGFP, was purchased from RiboPro. The mRNA either expressing an eGFP or firefly luciferase was purchased from Trilink. DOTMA:DOPE, 1:1 (w/w) were obtained from Invitrogen or Encapsula NanoSciences LLC.
Transfection procedure. 24 hours before transfection, C2c12 cells were seeded in 96well plates in order to reach 70% confluence. mRNA transfection complexes were formed by mixing mRNA with the dendrimers in 25 mM HEPES buffer, then with DOTMA:DOPE in 25 mM HEPES buffer at 25° C. The transfection complexes were then overlaid to the cells in full growth medium. The cells were harvested 4 hours after transfection for FACS analysis or 24 hours post transfection for reporter genes assays.
Two variants (NTX2 and NTX3) of the peptide dendrimer GSCG1,2-RL, 3-LR ((LR)8(KRL)4(KRL)2KGSC-NH2) were made which include the ASSLNIA (SEQ ID NO:1) muscle targeting peptide. Transfection of muscle cells with GSCG1,2-RL, 3-LR, NTX2 ((LR)8(KRL)4(KRL)2[…](Acp)-NH2) or NTX3 ((LR)8(KRL)4(KRL)2[…](Acp)-NH2) was performed using eGFP mRNA and transfection efficiency was assayed using either flow cytometry or the transgene expression assay. […]
Transgene expression assay: The cells were washed twice with PBS and incubated with 50 ul of 1× M-PER lysis buffer (Thermo 11874111). […] 40 ul of lysate from each well was transferred to all black 96 well plates for quantification of eGFP relative fluorescence unit (RFU), absorbance at 535 nm, using Molecular devices SpectraMax iD5.
Protein content determination: The protein content of each cell lysate was determined by mixing the lysate (25 μL) with Pierce™ BCA Protein Assay Kit (200 ul, Thermo Scientific). After 30 minutes of 37° C. incubation in at dark, absorbance was measured at 562 nm with Molecular devices SpectraMax iD5 and converted to protein concentration using a BSA standard curve. […]

Where [6] appears, read: GSCG1,2-RHL N:P 0.6:1, DOTMA/DOPE nanoparticles coated at 2.06:1 (dendrimer to mRNA).
Setting [7] is: GSCG1,2-RHL N:P 0.6:1, DOTMA/DOPE nanoparticles coated at 2.72:1 (dendrimer to mRNA).

For “(Ac-EEEE)2KGSCGAASSLNIA-(Acp)-NH2) [muscle-G1-EEEE]”, the “eGFP expression versus coat without muscle targeting domain” value is reported as “dramatic increase in eGFP expression” in series [1] (GSCG1,2-RHL N:P=0.6:1, DOTMA/DOPE w/w 10:1, same mole equivalent of coat, 24 hours, FIG. 27) and “dramatic increase in eGFP expression” in series [2]. The “mRNA transfection versus nanoparticles coated with dendrimer without the targeting domain” value in series [1] (coat mole ratio 2.72:1 and 2.06:1 (dendrimer to mRNA)) is reported as “improved mRNA transfection”. Besides, the zeta potential in series [3] (setting [6]) was roughly 38.7 mV; in series [3] (setting [7]) it was roughly 44.0 mV. For the same substance, the results for the PDI in series [4] (setting [6]) and in series [4] (setting [7]) were 0.15 and 0.14, respectively. Besides, the results for the size in series [4] (setting [6]) and in series [4] (setting [7]) were 176 nm and 172 nm, respectively.
For the substance “(LR)8(KRL)4(KRL)2KGSCHHHHHHGAASSLNIA(Acp)-NH2 [NTX3]”, in the series on C2c12 muscle cells, the “cells successfully transfected (uptake of Alexa488 labelled mRNA)” value is listed as “approximately 100%”. Further, the “increase in eGFP expression compared to GSCG1,2-RL, 3-LR” value in series [5] is recorded as “three-fold”.
